Where two headings read alike, the source gives them in different places.
Key:
[1] = test system: P. falciparum male gametocytes; test: P. falciparum Dual Gamete Formation Assay (PfDGFA), male readout (exflagellation); assay type: cell-based, Plasmodium falciparum NF54; conditions: for Selectivity Ratio M: HepG2 Tox50 versus male IC50; for IC50: PfDGFA, 24 h incubation with gametocytes before induction, exflagellation readout, read-out: Male IC50; for HitlevelM: number of replicates with >50% inhibition in the male readout
Summary of the method: (§1)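 Mature NF54 gametocytes (day 14) were incubated with compound for 24 h at 37°C under 1% O2/3% CO2, then triggered with xanthurenic acid ookinete medium plus Cy3-anti-Pfs25. Exflagellation was imaged by brightfield; after a further 24 h at 28°C, Pfs25-positive female gametes were imaged by fluorescence and counted by automated image analysis.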

[2] = test system: P. falciparum female gametocytes; test: P. falciparum Dual Gamete Formation Assay (PfDGFA), female readout (Pfs25-positive female gametes); assay type: cell-based, Plasmodium falciparum NF54; conditions: for Selectivity ratio F: HepG2 Tox50 versus female IC50; for IC50: PfDGFA, 24 h incubation with gametocytes before induction, female gamete readout, read-out: Female IC50; for HitlevelF: number of replicates with >50% inhibition in the female readout
Summary of the method: as §1

HepG2 cells = test: HepG2 cytotoxicity counter-screen; conditions: cytotoxic activity against HepG2 cells
[3] = 2µM, 24h preincubation with gametocytes, average of replicates
[4] = 2µM, 24h preincubation with gametocytes, replicate R1
[5] = 2µM, 24h preincubation with gametocytes, replicate R4
[6] = 2µM, 24h preincubation with gametocytes, replicate R3
[7] = 2µM, 24h preincubation with gametocytes prior to induction of gametogenesis, average of replicates
[8] = 2µM, 24h preincubation with gametocytes prior to induction of gametogenesis, replicate R1
[9] = 2µM, 24h preincubation with gametocytes prior to induction of gametogenesis, replicate R3
[10] = 2µM, 24h preincubation with gametocytes prior to induction of gametogenesis, replicate R4
[11] = Plasmodium falciparum, 2µM, 24h preincubation with gametocytes, average of replicates, read-out: Average inhibition male (%)
[12] = Plasmodium falciparum, 2µM, 24h preincubation with gametocytes, replicate R1, read-out: % inhibition male (individual replicates) R1
[13] = Plasmodium falciparum, 2µM, 24h preincubation with gametocytes, replicate R2, read-out: % inhibition male (individual replicates) R2
[14] = Plasmodium falciparum, 2µM, 24h preincubation with gametocytes, replicate R3, read-out: % inhibition male (individual replicates) R3
[15] = Plasmodium falciparum, 2µM, 24h preincubation with gametocytes, replicate R4, read-out: % inhibition male (individual replicates) R4
[16] = Plasmodium falciparum, 2µM, 24h preincubation with gametocytes, average of replicates, read-out: Average inhibition female (%)
[17] = Plasmodium falciparum, 2µM, 24h preincubation with gametocytes, replicate R1, read-out: % inhibition female (individual replicates) R1
[18] = Plasmodium falciparum, 2µM, 24h preincubation with gametocytes, replicate R2, read-out: % inhibition female (individual replicates) R2
[19] = Plasmodium falciparum, 2µM, 24h preincubation with gametocytes, replicate R3, read-out: % inhibition female (individual replicates) R3
[20] = Plasmodium falciparum, 2µM, 24h preincubation with gametocytes, replicate R4, read-out: % inhibition female (individual replicates) R4
[21] = Plasmodium falciparum, PfDGFA at 2µM, 24h preincubation with gametocytes, average of replicates, read-out: Average inhibition male (%)
[22] = Plasmodium falciparum, PfDGFA at 2µM, 24h preincubation with gametocytes, replicate R1, read-out: % inhibition male (individual replicates) R1
[23] = Plasmodium falciparum, PfDGFA at 2µM, 24h preincubation with gametocytes, replicate R2, read-out: % inhibition male (individual replicates) R2
[24] = Plasmodium falciparum, PfDGFA at 2µM, 24h preincubation with gametocytes, replicate R3, read-out: % inhibition male (individual replicates) R3
[25] = Plasmodium falciparum, PfDGFA at 2µM, 24h preincubation with gametocytes, replicate R4, read-out: % inhibition male (individual replicates) R4
[26] = Plasmodium falciparum, PfDGFA at 2µM, 24h preincubation with gametocytes, average of replicates, read-out: Average inhibition female (%)
[27] = Plasmodium falciparum, PfDGFA at 2µM, 24h preincubation with gametocytes, replicate R1, read-out: % inhibition female (individual replicates) R1
[28] = Plasmodium falciparum, PfDGFA at 2µM, 24h preincubation with gametocytes, replicate R2, read-out: % inhibition female (individual replicates) R2
[29] = Plasmodium falciparum, PfDGFA at 2µM, 24h preincubation with gametocytes, replicate R3, read-out: % inhibition female (individual replicates) R3
[30] = Plasmodium falciparum, PfDGFA at 2µM, 24h preincubation with gametocytes, replicate R4, read-out: % inhibition female (individual replicates) R4
[31] = PfDGFA at 2µM, 24h preincubation with gametocytes, average of replicates
[32] = PfDGFA at 2µM, 24h preincubation with gametocytes, replicate R1
[33] = PfDGFA at 2µM, 24h preincubation with gametocytes, replicate R3
[34] = PfDGFA at 2µM, 24h preincubation with gametocytes, replicate R4

Compound	Selectivity Ratio M [1]	IC50 [1]	Selectivity ratio F [2]	IC50 [2]	Tox50 (HepG2 cells)	inhibition at 2 µM [1, 11]	inhibition at 2 µM [1, 12]	inhibition at 2 µM [1, 13]	inhibition at 2 µM [1, 14]	inhibition at 2 µM [1, 15]	IC50 ([1]; Plasmodium falciparum)	inhibition at 2 µM [2, 16]	inhibition at 2 µM [2, 17]	inhibition at 2 µM [2, 18]	inhibition at 2 µM [2, 19]	inhibition at 2 µM [2, 20]	IC50 ([2]; Plasmodium falciparum)	HitlevelM ([1]; 2µM)	HitlevelF ([2]; 2µM)	other results
Cl.Cl.c1ccc2c(NCCCCCCNc3c4ccccc4nc4ccccc34)c3ccccc3nc2c1 [TCMDC-124285]	3.7	1680 nM	1.95	3180 nM	6.2 µM	–	–	–	–	–	–	–	–	–	–	–	–	–	–	Average inhibition male (%) [1, 3]: 93.2%; % inhibition male (individual replicates) R1 [1, 4]: 96.3%; % inhibition male (individual replicates) R4 [1, 5]: 88.4%; Average inhibition female (%) [2, 3]: 50.4%; % inhibition female (individual replicates) R1 [2, 4]: 48.2%; % inhibition female (individual replicates) R3 [2, 6]: 44.8%; % inhibition female (individual replicates) R4 [2, 5]: 50.1%
Cl.c1ccc2c(NCCCCCCCCCNc3c4ccccc4nc4ccccc34)c3ccccc3nc2c1 [TCMDC-124286]	3.22	1960 nM	1.31	4810 nM	6.29 µM	–	–	–	–	–	–	–	–	–	–	–	–	–	–	Average inhibition male (%) [1, 7]: 61.5%; % inhibition male (individual replicates) R1 [1, 8]: 79.2%; % inhibition male (individual replicates) R3 [1, 9]: 1.0%; % inhibition male (individual replicates) R4 [1, 10]: 84.9%; HitlevelM ([1]; 2µM, 24h preincubation): 3; Average inhibition female (%) [2, 7]: 43.1%; % inhibition female (individual replicates) R1 [2, 8]: 36.0%; % inhibition female (individual replicates) R3 [2, 9]: 18.9%; % inhibition female (individual replicates) R4 [2, 10]: 71.3%; HitlevelF ([2]; 2µM, 24h preincubation): 1
C=CCN(C(=O)c1ccc(Cl)c([N+](=O)[O-])c1)c1nc(-c2ccccc2)cs1 [TCMDC-124436]	69.29	–	88.48	–	27.57 µM	99.6%	99.4%	98.5%	102%	98.2%	400 nM	53%	34.2%	85.7%	53.1%	38.9%	310 nM	–	–	–
Cc1cc(Nc2ccncc2)n2nc(C)c(-c3ccc(Cl)cc3)c2n1 [TCMDC-124478]	68.63	–	6.55	–	65.53 µM	95.5%	96.8%	90.6%	96.8%	98%	950 nM	2.4%	-1.3%	-8.5%	24.2%	-4.9%	> 10000 nM	–	–	–
Cc1sc2ncnc(Sc3nnc(N)s3)c2c1C [TCMDC-124542]	46.96	–	89.35	–	66.05 µM	–	–	–	–	–	1410 nM	–	–	–	–	–	740 nM	3	4	inhibition at 2 µM [1, 21]: 69.3%; inhibition at 2 µM [1, 22]: 92.1%; inhibition at 2 µM [1, 23]: 95.8%; inhibition at 2 µM [1, 24]: 87%; inhibition at 2 µM [1, 25]: 2.3%; inhibition at 2 µM [2, 26]: 86.8%; inhibition at 2 µM [2, 27]: 95.8%; inhibition at 2 µM [2, 28]: 96.9%; inhibition at 2 µM [2, 29]: 102%; inhibition at 2 µM [2, 30]: 52.6%
O=C(O)C(=O)O.Oc1c(CN2CCC(Cc3ccccc3)CC2)cc(Cl)c2cccnc12 [TCMDC-124594]	2.09	2000 nM	3.66	1140 nM	4.17 µM	–	–	–	–	–	–	–	–	–	–	–	–	–	–	Average inhibition male (%) [1, 3]: 92.4%; % inhibition male (individual replicates) R1 [1, 4]: 97.5%; % inhibition male (individual replicates) R3 [1, 6]: 93.3%; % inhibition male (individual replicates) R4 [1, 5]: 86.9%; Average inhibition female (%) [2, 3]: 49.8%; % inhibition female (individual replicates) R1 [2, 4]: 37.8%; % inhibition female (individual replicates) R3 [2, 6]: 58.8%; % inhibition female (individual replicates) R4 [2, 5]: 51.4%
O=C(c1ccc([N+](=O)[O-])o1)N1CCC(Cc2ccc(C(F)(F)F)cc2)CC1 [TCMDC-124805]	70.69	–	64.48	–	28.45 µM	101%	98.9%	100%	102%	102%	400 nM	55.8%	35.5%	62.7%	38.2%	86.7%	440 nM	–	–	–
Cc1ccccc1OCC(O)CNC1CCC(NCC(O)COc2ccccc2C)CC1 (centres unmarked) [TCMDC-125142]	2.74	1940 nM	3.94	1350 nM	5.33 µM	–	–	–	–	–	–	–	–	–	–	–	–	4	1	Average inhibition male (%) [1, 31]: 76.7%; % inhibition male (individual replicates) R1 [1, 32]: 73.4%; % inhibition male (individual replicates) R3 [1, 33]: 61.7%; % inhibition male (individual replicates) R4 [1, 34]: 90.9%; Average inhibition female (%) [2, 31]: 34.1%; % inhibition female (individual replicates) R1 [2, 32]: 36.4%; % inhibition female (individual replicates) R3 [2, 33]: 18.2%; % inhibition female (individual replicates) R4 [2, 34]: 27.5%
Cc1ccc(-n2c(Sc3ncnc4sccc34)nnc2N2CCCC2)cc1 [TCMDC-125247]	192.28	–	296.87	–	73.14 µM	–	–	–	–	–	380 nM	–	–	–	–	–	250 nM	4	3	inhibition at 2 µM [1, 21]: 74.6%; inhibition at 2 µM [1, 22]: 86.9%; inhibition at 2 µM [1, 23]: 67.1%; inhibition at 2 µM [1, 24]: 80.2%; inhibition at 2 µM [1, 25]: 64.2%; inhibition at 2 µM [2, 26]: 63.5%; inhibition at 2 µM [2, 27]: 56.4%; inhibition at 2 µM [2, 28]: 85.8%; inhibition at 2 µM [2, 29]: 26.4%; inhibition at 2 µM [2, 30]: 85.4%
